According to publication PMC3748599 (Environmental science & technology, 2013):
Like-named read-outs stand apart in the source and are kept apart here.

What was measured:
[1] = test system: CYP3A; details: liver microsomes of pretreated male rats; cited from earlier work
[2] = test system: CYP2B; details: liver microsomes of pretreated male rats; cited from earlier work
[3] = test system: CYP1A; details: liver microsomes of pretreated male rats; cited from earlier work
[4] = test system: rat liver microsomes; details: for parent compound detected at end of incubation (% of initial amount): 30 min; for HEPOXB formed (% of the HEPTA added): substrate HEPTA
[5] = cited from earlier work
[6] = test system: rat liver microsomes; test: Enantioselective analysis; assay type: in vitro ADME; details: for enantiomeric enrichment of the parent compound: racemic substrate; for enantiomeric fraction (EF) of metabolite, range: range over microsomal preparations
[7] = microsomes from DX-pretreated rats
[8] = microsomes from PB-pretreated rats
[9] = microsomes from VH-pretreated rats
[10] = microsomes from DX- and VH-pretreated rats
[11] = formed from cis- and trans-chlordane
[12] = substrate racemic C-CHLORD, microsomes from PB-pretreated rats

CCC1(c2ccccc2)C(=O)NC(=O)NC1=O [PB, phenobarbital]
CYP3A activity relative to microsomes from VH-pretreated animals [1]: 2 times | CYP2B activity relative to microsomes from VH-pretreated animals [2]: 96 times | CYP1A activity relative to microsomes from VH-pretreated animals [3]: 4 times

ClC1=C(Cl)[C@]2(Cl)[C@H]3[C@H](Cl)[C@@H](Cl)C[C@H]3[C@@]1(Cl)C2(Cl)Cl (relative stereo) [T-CHLORD, trans-chlordane]
parent compound detected at end of incubation (% of initial amount) [4, 7]: 80% | parent compound detected at end of incubation (% of initial amount) [4, 8]: 32% | parent compound detected at end of incubation (% of initial amount) [4, 9]: 94% | enantiomeric enrichment in tissues ([5]; rats treated with T-CHLORD): (-)-T-CHLORD is enriched | enantiomeric enrichment of the parent compound [6, 7]: slight enrichment of (-)-T-CHLORD | enantiomeric enrichment of the parent compound [6, 8]: (-)-T-CHLORD was highly enriched | enantiomeric enrichment of the parent compound [6, 9]: No enantiomeric enrichment

ClC1=C(Cl)[C@]2(Cl)[C@@H]3[C@@H](Cl)[C@@H]4O[C@@H]4[C@@H]3[C@@]1(Cl)C2(Cl)Cl (single isomer, unassigned; isomer a) [HEPOXA, heptachlor epoxide isomer A]
formation as metabolite from HEPTA ([4]; all three rat liver microsomal preparations): not to HEPOXA

ClC1=C(Cl)C2(Cl)C3C(Cl)C=CC3C1(Cl)C2(Cl)Cl (stereo not drawn) [HEPTA, Heptachlor]
formation as metabolite from both chlordane isomers ([4]; microsomal incubations with T-CHLORD and C-CHLORD): not detected | change of parent compound levels in incubation [4, 10]: significant decrease | change of parent compound levels in incubation [4, 8]: significant decrease | parent compound detected at end of incubation (% of initial amount) [4, 8]: 6%

ClC1=C(Cl)C2(Cl)[C@H]3C[C@H](Cl)[C@H](Cl)[C@H]3C1(Cl)C2(Cl)Cl (stereo partly drawn) [C-CHLORD, cis-Chlordane]
change of parent compound levels in incubation [4, 10]: no statistically significant change | change of parent compound levels in incubation [4, 8]: clearly decreased | enantiomeric enrichment of the parent compound [6, 7]: did not reach statistical significance | enantiomeric enrichment of the parent compound [6, 8]: (-)-C-CHLORD was only modestly enriched | enantiomeric enrichment of the parent compound [6, 9]: (-)-C-CHLORD was only modestly enriched

ClC1=C(Cl)[C@]2(Cl)[C@H]3[C@H]([C@H](Cl)[C@]4(Cl)O[C@H]34)[C@@]1(Cl)C2(Cl)Cl [OXY, oxychlordane]
OXY formed (% of the total C-CHLORD added) ([4]; substrate C-CHLORD, microsomes from PB-pretreated rats): approximately 2% | OXY levels formed, PB versus DX microsomes ([4]; substrate T-CHLORD, PB- versus DX-pretreated rats): 9 times | enantiomeric enrichment in vivo ([5]; female rats treated for 28 days with trans-nonachlor or T-CHLORD): enrichment of (+)-OXY | enantiomeric enrichment in vivo ([5]; male rats, all time-points investigated): (-)-OXY was enriched | enantiomeric fraction (EF) of metabolite, range [6, 11]: 0.45-0.89 | enantiomeric enrichment of metabolite [6, 12]: (+)-OXY was enriched | enantiomeric enrichment of metabolite ([6]; substrate racemic T-CHLORD, microsomes from DX-pretreated rats): (-)-OXY was slightly enriched | enantiomeric enrichment of metabolite ([6]; substrate racemic T-CHLORD, microsomes from PB-pretreated rats): Enrichment of (+)-OXY

ClC1=C(Cl)[C@]2(Cl)[C@@H]3[C@@H](Cl)[C@H]4O[C@H]4[C@@H]3[C@@]1(Cl)C2(Cl)Cl (single isomer, unassigned; isomer b) [HEPOXB, heptachlor epoxide isomer B]
HEPOXB formed (% of the HEPTA added) [4, 7]: 47% | HEPOXB formed (% of the HEPTA added) [4, 8]: 82% | HEPOXB formed (% of the HEPTA added) [4, 9]: 33% | enantiomeric fraction (EF) of metabolite, range ([6]; formed from heptachlor): 0.44-0.54 | enantiomeric enrichment of metabolite ([6]; substrate racemic HEPTA, microsomes from DX-pretreated rats): enrichment of (-)-HEPOXB | enantiomeric enrichment of metabolite ([6]; substrate racemic HEPTA, microsomes from PB-pretreated rats): slight but significant enrichment of (+)-HEPOXB | enantiomeric enrichment of metabolite ([6]; substrate racemic HEPTA, microsomes from VH-pretreated rats): enrichment of (-)-HEPOXB

ClC1=CC2C(C1Cl)C1(Cl)C(Cl)=C(Cl)C2(Cl)C1(Cl)Cl (stereo not drawn) [DCC, 1,2-dichlorochlordene]
enantiomeric fraction (EF) of metabolite, range [6, 11]: 0.42-0.90 | enantiomeric enrichment of metabolite ([6]; substrate racemic C-CHLORD, microsomes from DX-pretreated rats): clear enrichment of E1-DCC | enantiomeric enrichment of metabolite [6, 12]: enrichment of E2-DCC | enantiomeric enrichment of metabolite ([6]; substrate racemic C-CHLORD, microsomes from VH-pretreated rats): clear enrichment of E1-DCC
